This passage reports TGI results from PubChem BioAssay (NCI).

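Growth conditions: 96-well plates. Treatment: test compound, 48 hours, 5 concentrations. Analysis: linear interpolation between bracketing concentrations; unreached endpoints set to highest concentration. Definition used: TGI = concentration required for complete inhibition of growth.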

Holding throughout (test): NCI-60 cell line screen, 48 h
The subject of experiment [1] is DMS 273 small cell lung.
Experiment [2] deals with HCC-2998 colon.
The subject of experiment [3] is HOP-62 NSCLC.
Experiment [4] concerns HCT-15 colon.
Experiment [5] relates to DMS 114 small cell lung.
For experiment [6], the system named is SR leukemia.
In experiment [7] the test system is KM20L2 colon.
Experiment [8] has as its system SF-268 CNS.
The subject of experiment [9] is SK-MEL-5 melanoma.
Experiment [10] has as its system HS 578T breast.

Take `CN(C)CCNC(=O)c1cccc2cc3c(Cl)cccc3nc12`: the TGI was more than 100 µM in [1]; 3.66 µM in experiment [2]; 2.55 µM in experiment [3]; 6.37 µM in experiment [4]; 3.69 µM in experiment [5]; 14.8 µM in experiment [6]. The compound also showed a TGI in experiment [7] of 4.75 µM.
For the compound `N/C(=N\N=C\c1ccc(C(F)(F)F)cc1)NO`, the TGI in [1] is 59.9 µM; in [3] it was 55 µM; in experiment [8] it was 61 µM; in experiment [5], more than 100 µM; in experiment [6], more than 100 µM.
Take `CCOP(=O)(OCC)C1CCCOC1=O` (configuration not stated): the TGI in experiment [1], in experiment [2], in experiment [3], in experiment [8], in experiment [9] and in experiment [4] was more than 100 µM throughout. Further, the TGI in experiment [5] and in experiment [7] was more than 100 µM in each case.
For `COCN1COCN=C1NC#N`, the TGI in experiment [1], in [2], in experiment [3], in [8], in experiment [9] and in [4] was more than 100 µM each time. Moreover, the TGI in experiment [5], in [6] and in [7] was more than 100 µM each time.
Take `O=[N+]([O-])C=C(c1ccc(Cl)cc1)c1ccc(Cl)cc1`: the TGI in experiment [1] is 20.1 µM; in [2], 34.4 µM; in [3] it was 37.5 µM; in experiment [4], 38 µM; in experiment [5], 28.5 µM; in [6], 54 µM. This compound also gave a TGI in experiment [7] of 38.9 µM.
As to `CCOC(=O)Oc1cc2c(c(OC)c1OC)-c1ccc(OC)c(=O)cc1C(NC(C)=O)CC2` (configuration not stated), the TGI in experiment [1] is more than 100 µM; in experiment [2], 0.683 µM; in experiment [3], more than 93.1 µM; in [8], 73.5 µM; in [10], more than 100 µM; in [9], 0.14 µM. Moreover, the TGI in experiment [4] is more than 100 µM; in experiment [5], 0.0301 µM; in experiment [7], 0.0866 µM.
As to `CN(C)C(=N/O)/C(=N\O)N(C)C`, the TGI in experiment [1], in experiment [2], in [3], in [8], in experiment [4] and in [5] was more than 100 µM each time. Further, the TGI in experiment [6] and in experiment [7] was more than 100 µM each time.
Turning to `O=C(O)[C@H](NS(=O)(=O)c1ccc(F)cc1)c1ccccc1`, the TGI in experiment [1], in experiment [2], in experiment [3], in [8], in experiment [9] and in [4] was more than 100 µM each time. Besides, the TGI in experiment [5] and in experiment [7] was more than 100 µM each time.
For the compound `c1ccc(C2OC3(CCC[C@H]4C[C@H]43)O[C@H]2c2ccccc2)cc1` (some centres not stated), the TGI in experiment [1] is more than 100 µM; in [2], more than 100 µM; in experiment [3], more than 100 µM; in experiment [8], more than 100 µM; in experiment [9] it was 65.7 µM; in experiment [4], more than 100 µM. The TGI in experiment [5] was 74.9 µM; in [6] it was 54.2 µM; in experiment [7], more than 100 µM.
In the case of `CC1=C(C(=O)Nc2ccccc2)C(c2cccc3ccccc23)C(C(=O)Nc2ccccc2)=C(C)N1`, the TGI in [1] is 40.9 µM; in [2], 38.6 µM; in experiment [3] it was 35.4 µM; in experiment [8], 43.1 µM; in [9] it was 33.4 µM; in experiment [4], 30.5 µM. Moreover, the values for the TGI in experiment [5], in experiment [6] and in experiment [7] were 55.7 µM, 22.6 µM and 36.2 µM, respectively.
Turning to `Cc1ccc(S(=O)(=O)SC(C)(C)C)cc1`, the TGI in [1] was 47.5 µM; in experiment [2], more than 58.7 µM; in experiment [3], more than 100 µM; in [8], more than 100 µM; in experiment [10] it was more than 100 µM; in [9] it was more than 100 µM. In addition, the figures for the TGI in experiment [4], in [5] and in experiment [6] were 53 µM, 35.6 µM and more than 100 µM, respectively.
For `COc1ccc2c3c([nH]c2c1[N+](=O)[O-])C(C)N(Cc1ccccc1)CC3` (configuration not stated), the TGI is 11.6 µM in [1]; more than 100 µM in experiment [2]; 7.12 µM in experiment [3]; 5.83 µM in experiment [8]; more than 100 µM in experiment [4]; more than 100 µM in experiment [5]. For the same compound, the figures for the TGI in [6] and in experiment [7] were 45.2 µM and more than 100 µM, respectively.
Turning to `O=C1C=CC=C/C1=C1/SC(c2ccccc2)=C(O)N1c1ccccc1`, the TGI in experiment [1], in experiment [2], in [8], in experiment [9], in experiment [4] and in [5] was more than 100 µM each time. The same compound yielded a TGI in [7] of more than 100 µM.
For the compound `CCOC(=O)/C(=C/c1ccc(C(=O)OC)cc1)N(CC)CC`, the TGI in experiment [2], in experiment [3], in experiment [8], in [9], in experiment [4] and in experiment [5] was more than 100 µM in each case. Also, the TGI in experiment [6] and in [7] was more than 100 µM each time.
`CC1/C(=N\O)CC(c2ccccc2)N(C)C1c1ccccc1` (configuration not stated): the TGI in [1], in experiment [2], in [3], in [8], in experiment [9] and in experiment [4] was more than 100 µM throughout. Also, the TGI in experiment [5] and in experiment [7] was more than 100 µM throughout.
Take `ClC/C=C/COC1CCCCO1` (configuration not stated): the TGI in [1], in experiment [2], in [3], in experiment [8], in [9] and in experiment [4] was more than 100 µM in each case. In addition, the results for the TGI in experiment [5], in [6] and in [7] were more than 100 µM, 54.2 µM and more than 100 µM, respectively.
With `CC1=C(/C=C/C(C)=C/C2CC(N(C)C)=CC(=O)O2)C(C)(C)CCC1` (configuration not stated), the TGI is 27.1 µM in experiment [1]; 26.7 µM in [2]; 31 µM in [3]; 40.6 µM in experiment [8]; 19.6 µM in [9]; 23.8 µM in experiment [5]. In addition, the TGI in [6] is 28.7 µM.
On to `O=C1N2Cc3c4ccc5c3CN3C(=O)N6Cc7c(ccc(c7CN1C6(c1ccccc1)C23c1ccccc1)OCCOCCNCCOCCO4)OCCOCCNCCOCCO5` (configuration not stated), for which the TGI in [1] is more than 100 µM; in [2], more than 100 µM; in experiment [3], more than 100 µM; in [8], more than 100 µM; in experiment [9], more than 100 µM; in [4] it was 91.3 µM. Moreover, the TGI in experiment [5], in [6] and in experiment [7] was more than 100 µM each time.
On to `Cc1cccc(C)c1NC(=O)C1=NC(=S)NC(c2ccccc2)C1c1nc2ccccc2s1` (configuration not stated), for which the TGI in experiment [1], in [2], in experiment [8], in experiment [9], in [5] and in experiment [6] was more than 100 µM each time. For the same compound, in experiment [7], the TGI was more than 100 µM.
As for `COC(=O)C1Cc2c(n(C)c3ccccc23)C(CCC(=O)O)N1Cc1ccccc1` (configuration not stated), the TGI in experiment [1] was more than 100 µM; in experiment [2], more than 100 µM; in [3], more than 100 µM; in experiment [8] it was 69.9 µM; in experiment [9] it was 79.5 µM; in experiment [4] it was more than 100 µM. Besides, the results for the TGI in experiment [5] and in experiment [7] were 93.2 µM and more than 100 µM, respectively.
Take `O=C1CC(c2ccccc2)=Nc2ccccc2N1`: the TGI in [1], in experiment [2], in experiment [3], in experiment [8], in experiment [9] and in experiment [4] was more than 100 µM in each case. Also, the TGI in experiment [6] and in [7] was more than 100 µM throughout.
`CC(=O)Nc1c(Nc2ccccc2)[nH]c(C)nc1=S`: the TGI in experiment [1], in experiment [2], in experiment [3], in [8], in experiment [9] and in [4] was more than 100 µM in each case. Moreover, the TGI in experiment [5] and in experiment [7] was more than 100 µM each time.
Regarding `c1ccc2c3c([nH]c2c1)[C@H]1C2CCCCN2CN1CC3` (some centres not stated), the TGI in experiment [1], in experiment [2], in [3], in experiment [8], in experiment [9] and in experiment [4] was more than 100 µM throughout. Also, the TGI in experiment [5] and in [7] was more than 100 µM throughout.
Turning to `O=c1[nH]c2ccccc2nc1/C=C(\O)c1ccccc1O`, the TGI in experiment [1], in experiment [2], in experiment [3], in experiment [8], in experiment [9] and in [4] was more than 100 µM throughout. The TGI in experiment [5], in experiment [6] and in [7] was more than 100 µM each time.
